From BindingDB's records for doi:10.1021/jm00046a011 (Glaxo Research and Development, 1994)

Target: Squalene synthase (Candida albicans)
Assay: Compound was tested for in vitro inhibitory activity against Candida albicans 2005E microsomal SQS

SMILES	IC50
CC[C@H](C)C[C@H](C)CCC(=O)O[C@@H]1[C@@H](O)[C@@]2(CCC(C)[C@H](OC(C)=O)[C@@H](C)Cc3ccccc3)O[C@H](C(=O)O)[C@@](O)(C(=O)O)[C@]1(C(=O)O)O2 (stereo partly drawn) [(1S,3S,4S,5R,6R,7R)-1-((4S,5S)-4-Acetoxy-3,5-dimethyl-6-phenyl-hexyl)-6-((4R,6S)-4,6-dimethyl-octanoyloxy)-4,7-dihydroxy-2,8-dioxa-bicyclo[3.2.1]octane-3,4,5-tricarboxylic acid]	7 nM
CC(CC[C@]12O[C@H](C(=O)O)[C@@](O)(C(=O)O)[C@](C(=O)O)(O1)[C@H](O)[C@H]2O)C[C@@H](C)Cc1ccccc1 (stereo partly drawn) [(1S,3S,4S,5R,6R,7R)-1-((R)-3,5-Dimethyl-6-phenyl-hexyl)-4,6,7-trihydroxy-2,8-dioxa-bicyclo[3.2.1]octane-3,4,5-tricarboxylic acid]	200 nM
